This is an account of results in paper PMC10714399, “Open Source Antibiotics: Simple Diarylimidazoles Are Potent against Methicillin-Resistant Staphylococcus aureus” (ACS Infectious Diseases, 2023).

Converted amounts (≈) assume the structure as drawn. Where two headings read alike, the source gives them in different places.

The test system of experiment [1] is Staphylococcus aureus NCTC 13373 (mecA-positive; methicillin-resistant). The experiment in a line: In vitro antibacterial activity, MIC (UCL School of Pharmacy assay), MRSA. The experiment is classed as cell-based. To be noted: for MIC: Staphylococcus aureus, read-out: MRSA MIC. The method, then:
(§1) Staphylococcus aureus NCTC 13373 (mecA-positive; methicillin-resistant, NCTC 13373) was supplied by the National Collection of Type Cultures (NCTC), Public Health England, United Kingdom. Other organisms, S. aureus ATCC 25923 (methicillin-susceptible) and Enterococcus faecalis ATCC 51299 (vanA-positive; vancomycin-resistant), were obtained from the American Type Culture Collection (ATCC) via LGC Standards, UK. A suspension of each organism was prepared from an overnight plate culture (tryptone soya agar) in phosphate-buffered saline (PBS) and adjusted to an absorbance reading at 600 nm of 0.1, which is approximately equivalent to 1 × 10^8 colony-forming units (CFU) per mL. The cultures were further diluted 1:100 in isosensitest broth (Oxoid, United Kingdom) before 100 μL was used to inoculate each well of a 96-well plate that contained diluted samples of the OSA series. Compounds were evaluated over a 2-fold dilution range from 32 to 0.03 μg/mL. Stocks of the samples were prepared in 100% DMSO at […] before being diluted in isosenstitest broth. The highest concentration of DMSO present was 2%, which has been previously shown not to inhibit the growth of the microorganisms (data not shown). […] Vancomycin was used as a quality control compound.

In experiment [2] the test system is S. aureus ATCC 25923 (methicillin-susceptible). The experiment in a line: In vitro antibacterial activity, MIC (UCL), MSSA. It counts as cell-based, Staphylococcus aureus. To be noted: for MIC: Staphylococcus aureus, read-out: MSSA MIC. The protocol:
as §1

As a reminder, the MIC is the lowest concentration that inhibits growth of the organism.

For the compound `c1cc(-c2nc3n(c2-c2ccc4c(c2)OCO4)CCC3)ccn1` [compound 817], the “MRSA MIC” value in experiment [1] was above 32 µg/mL. Still for that read-out and setting: the result for `c1ccc(-c2nc3n(c2-c2ccc4c(c2)OCO4)CCCC3)nc1` [compound 818] reads 16 µg/mL. As to `c1ccc(-c2nc3n(c2-c2ccc4c(c2)OCCO4)CCC3)nc1` [compound 819], the MIC in experiment [1] was 16 µg/mL (≈ 50.1 µM). As for `COc1ccc(-c2c(-c3ccccn3)nc3n2CCC3)cc1OC` [compound 820], the “MRSA MIC” value in experiment [1] came out at 32 µg/mL. Further, the minimal inhibitory concentration (MIC) in experiment [1] (16 h), in experiment [1] and in experiment [2] was above 32 µg/mL throughout. `COc1ccc(-c2c(-c3ccccn3)nc3n2CCC3)cc1` [compound 823]: in experiment [1], the MIC was determined as 16 µg/mL (≈ 54.9 µM). On to `CSc1ccc(-c2c(-c3ccccn3)nc3n2CCC3)cc1` [compound 824], for which the MIC in experiment [1] stood at 4 µg/mL (≈ 13 µM). For `COc1cccc(-c2c(-c3ccccn3)nc3n2CCC3)c1` [compound 825], in experiment [1], the MIC turned out to be 16 µg/mL (≈ 54.9 µM). `CSc1cccc(-c2c(-c3ccccn3)nc3n2CCC3)c1` [compound 826]: the MIC in experiment [1] came out at 4 µg/mL (≈ 13 µM).

For `c1ccc(-c2nc3n(c2-c2ccc4c(c2)CCO4)CCC3)nc1` [compound 827], in experiment [1], the “activity against MRSA, in words” value is on record as “ineffective” and the MIC was 32 µg/mL (≈ 105 µM). On the same counts, the results for `c1ccc(-c2nc3n(c2-c2ccc4c(c2)OCC4)CCC3)nc1` [compound 828] are “ineffective” and 32 µg/mL (≈ 105 µM). As to `c1ccc(-c2nc3n(c2-c2ccc4ccoc4c2)CCC3)nc1` [compound 829], the MIC in experiment [1] came to 4 µg/mL (≈ 13.3 µM).

Take `c1ccc(-c2nc3n(c2-c2ccc4ccsc4c2)CCC3)nc1` [compound 830]: the MIC in experiment [1] worked out at 4 µg/mL (≈ 12.6 µM).

For the compound `c1ccc(-c2nc3n(c2-c2ccc4sc5ccccc5c4c2)CCC3)nc1` [compound 831], the MIC in experiment [1] worked out at 8 µg/mL (≈ 21.8 µM). Still for that read-out and setting: as for `c1ccc(-c2nc3n(c2-c2csc4ccccc24)CCC3)nc1` [compound 832], the figure is 8 µg/mL (≈ 25.2 µM). Consider `c1ccc(-c2nc3n(c2-c2ccc4cccnc4c2)CCC3)nc1` [compound 833], for which, in experiment [1], the “activity against MRSA, in words” value is reported as “ineffective” and the MIC was above 32 µg/mL. For the compound `c1ccc(-c2nc3n(c2-c2ccc4sccc4c2)CCC3)cc1` [compound 834], the “MRSA MIC” value in experiment [1] is listed as above 32 µg/mL. For the compound `c1ccc(-c2nc3n(c2-c2ccc4scnc4c2)CCC3)nc1` [compound 835], in experiment [1], the “activity against MRSA, in words” value is listed as “ineffective” and the MIC was 32 µg/mL (≈ 101 µM). For `Cc1nc2cc(-c3c(-c4ccccn4)nc4n3CCC4)ccc2s1` [compound 836] the same measures were “ineffective” and 32 µg/mL (≈ 96.3 µM). On to `COc1cccn2c(N(C)c3ccc(F)cc3)c(-c3ccccn3)nc12` [compound 1001], for which the MIC in experiment [1] (16 h) and in experiment [2] (16 h) was 16 µg/mL (≈ 45.9 µM) in each case. In the case of `[2H]C([2H])([2H])N(c1ccc(F)cc1)c1c(-c2ccccn2)nc2ccccn12` [compound 1002], the minimal inhibitory concentration (MIC) in experiment [1] and in experiment [2] was 16 µg/mL (≈ 49.8 µM) throughout. On to `CN(c1ccc(F)cc1)c1c(-c2ccccn2)nc2ccc(Br)cn12` [compound 1003], for which the MIC in experiment [1] and in experiment [2] was 16 µg/mL (≈ 40.3 µM) throughout.

Take `CSc1ccc2nc(-c3ccccn3)c(N(C)c3ccc(F)cc3)n2c1` [compound 1004]: the MIC in experiment [1] and in experiment [2] was 8 µg/mL (≈ 22 µM) in each case.

As to `CN(c1ccc(F)cc1)c1c(-c2ccccn2)nc2cccc(F)n12` [compound 1005], the MIC in experiment [1] and in experiment [2] was 32 µg/mL (≈ 95.1 µM) throughout. On to `CN(c1ccc(F)cc1)c1c(-c2ccccn2)nc2c(F)cccn12` [compound 1006], for which the MIC in experiment [1] (16 h) and in experiment [2] (16 h) was above 32 µg/mL in each case.

As to `COc1ccnc(-c2nc3ccccn3c2N(C)c2ccc(F)cc2)c1` [compound 1007], the “MRSA MIC” value in experiment [1] amounted to 8 µg/mL. For the same compound, in experiment [2], the “MSSA MIC” value was determined as 8 µg/mL. For the compound `Fc1ccc(Nc2c(-c3nccs3)nc3ccccn23)cc1` [compound 1008], the MIC in experiment [1] and in experiment [2] was above 32 µg/mL each time. In the case of `Fc1ccc(Nc2c(-c3ccc[nH]3)nc3ccccn23)cc1` [compound 1009], the MIC in experiment [1] and in experiment [2] was above 32 µg/mL each time. Consider `CC(C)CN(c1ccc(F)cc1)c1c(-c2nccs2)nc2ccccn12` [compound 1010], for which the “MRSA MIC” value in experiment [1] is above 32 µg/mL. Besides, the “MSSA MIC” value in experiment [2] was above 32 µg/mL. In the case of `CCN(CC)c1ccc(-c2c(-c3ccccn3)nc3ccccn23)cc1` [compound 1011], the MIC in experiment [1] and in experiment [2] was 4 µg/mL (≈ 11.7 µM) each time. With `COc1ccc(-c2nc3ccccn3c2N(CC(C)C)c2ccc(F)cc2)nc1` [compound 1034], the “MRSA MIC” value in experiment [1] was 8 µg/mL.
